Data taken from ChEMBL document CHEMBL3797117 (Bioorg Med Chem Lett, 2016).

Legend:
[1] = molecular target: Aldo-keto reductase family 1 member B1 (Rattus norvegicus, UniProt P07943); assay: Inhibition of ALR2 from rat lens using D,L-glyceraldehyde as substrate measured as absorption of NADPH for 4 mins by UV/vis spectrophotmetry
Brain = assay: Reduction of MDA level in Wistar rat brain at 100 uM after 30 mins in presence of ascorbic acid by UV-vis spectrophotmetry relative to control; assay type: functional; details: 0.5 h
[2] = Antioxidant activity assessed as DPPH free radical scavenging activity at 100 uM after 40 mins by UV-Vis spectrophotometry; assay type: physicochemical
[3] = Antioxidant activity assessed as DPPH free radical scavenging activity at 1 uM after 40 mins by UV-Vis spectrophotometry; assay type: physicochemical
[4] = Antioxidant activity assessed as DPPH free radical scavenging activity at 10 uM after 40 mins by UV-Vis spectrophotometry; assay type: physicochemical
[5] = Antioxidant activity assessed as DPPH free radical scavenging activity at 100 uM after 30 mins under sunlight by UV-Vis spectrophotometry; assay type: physicochemical; details: 0.5 h
[6] = Antioxidant activity assessed as DPPH free radical scavenging activity after 30 mins under sunlight by UV-Vis spectrophotometry; assay type: physicochemical
[7] = Antioxidant activity assessed as DPPH free radical scavenging activity at 10 uM after 30 mins under sunlight by UV-Vis spectrophotometry; assay type: physicochemical; details: 0.5 h
[8] = Antioxidant activity assessed as DPPH free radical scavenging activity at 1 uM after 30 mins under sunlight by UV-Vis spectrophotometry; assay type: physicochemical; details: 0.5 h
[9] = Antioxidant activity assessed as DPPH free radical scavenging activity at 10 uM after 120 mins under sunlight by UV-Vis spectrophotometry; assay type: physicochemical; details: 2 h
[10] = Antioxidant activity assessed as DPPH free radical scavenging activity at 100 uM after 120 mins under sunlight by UV-Vis spectrophotometry; assay type: physicochemical; details: 2 h

| SMILES | IC50 [1] | inhibition (INH) [2] | inhibition at 100 µM (Brain) | also measured |
| --- | --- | --- | --- | --- |
| Cc1c(C)c2c(c(C)c1O)CCC(C)(C(=O)O)O2 (stereo not drawn) [TROLOX] | – | 97% | 100% | inhibition (INH) [3]: 32%; inhibition (INH) [4]: 91.1% |
| CC(/C=C1\SC(=S)N(CC(=O)O)C1=O)=C\c1ccccc1 | – | 0% | 0% | – |
| COc1ccc(F)c(CN2CN(CC(=O)O)c3ccc(Br)cc3S2(=O)=O)c1 | 1.8 µM | 44.3% | 9.55% | – |
| O=C(O)CN1CN(Cc2ccc(O)cc2)S(=O)(=O)c2cc(O)ccc21 | 7.6 µM | – | 100% | inhibition (INH) [5]: 98%; EC50 [6]: 7.6 µM; inhibition (INH) [7]: 92.3%; inhibition (INH) [8]: 42.1% |
| O=C(O)CN1CN(Cc2ccccc2)S(=O)(=O)c2cc(O)ccc21 | 9.4 µM | – | 88% | inhibition (INH) [9]: 24.4%; inhibition (INH) [10]: 93.3% |
| Cc1ccc2c(c1)S(=O)(=O)N(Cc1cc(O)ccc1F)CN2CC(=O)O | 4.8 µM | 32.3% | 14.1% | – |

Now from value to compound, other results behind:

| IC50 [1] | inhibition (INH) [2] | SMILES | inhibition at 100 µM (Brain) | also measured |
| --- | --- | --- | --- | --- |
| 5.6 µM | 5.2% | Cc1ccc2c(c1)S(=O)(=O)N(Cc1ccc(O)cc1)CN2CC(=O)O | 11% | – |
| 11.2 µM | 40.6% | COc1ccc(CN2CN(CC(=O)O)c3ccc(OC)cc3S2(=O)=O)cc1 | 31.5% | – |
| 18.2 µM | 3.1% | COc1ccc(CN2CN(CC(=O)O)c3ccc(C)cc3S2(=O)=O)cc1 | 8.4% | – |
| 7.2 µM | 6.2% | COc1ccc(CN2CN(CC(=O)O)c3ccc(Br)cc3S2(=O)=O)cc1 | 2.6% | – |
| 3.5 µM | 18.9% | COc1ccc(F)c(CN2CN(CC(=O)O)c3ccc(C)cc3S2(=O)=O)c1 | 4.47% | – |
| 13.6 µM | 53.1% | COc1ccc2c(c1)S(=O)(=O)N(Cc1ccccc1)CN2CC(=O)O | 42.3% | – |
| 7.5 µM | 5.9% | COc1ccc(CN2CN(CC(=O)O)c3ccc(Cl)cc3S2(=O)=O)cc1 | 1.6% | – |
